ChEMBL document CHEMBL1139066, “Analogues of 2-crotonyloxymethyl-(4R,5R,6R)-4,5,6-trihydroxycyclohex-2-enone (COTC) with anti-tumor properties” (Bioorg Med Chem Lett, 2007)

Legend:
[1] = test system: A549; assay: Cytotoxicity against human A549 cells by MTT assay; format: functional, cell-based
[2] = test system: NCI-H460; assay: Cytotoxicity against human H460 cells by MTT assay; format: functional, cell-based

Row | Structure (SMILES) | IC50 [1] | IC50 [2]
1 | C/C=C/C(=O)OCC1=C[C@H]2O[C@](C)(OC)[C@@](C)(OC)O[C@@H]2[C@H](F)C1=O | 31 µM | 43 µM
2 | C/C=C/C(=O)OCC1=CC(O)CCC1=O (configuration not stated) | 24 µM | 10 µM
3 | C/C=C/C(=O)OCC1=C[C@H]2O[C@](C)(OC)[C@@](C)(OC)O[C@@H]2CC1=O | 32 µM | 60 µM
4 | C/C=C/C(=O)OCC1=C[C@@H](O)[C@H](O)CC1=O | 147 µM | 158 µM
5 | C/C=C/C(=O)OCC1=C[C@@H](O)[C@H](O)[C@H](F)C1=O | 164 µM | > 200 µM
6 | C/C=C/C(=O)OCC1=CCCCC1=O | 55 µM | 40 µM
